Measurements published in patent US20120258938A1, “Enzymatic Production or Chemical Synthesis and Uses for 5,7-Dienes and UVB Conversion Products Thereof” (priority 2008, published 2012).

What was measured:
bovine CYP11A1 = bovine CYP11A1 (Bos taurus, UniProt P00189); test: Metabolism by CYP11A1 (P450scc) in phospholipid vesicles; type: in vitro ADME; settings: first 2 min of incubation
Method: (§1) Adrenodoxin was added last to initiate the reaction.
(§2) Products and remaining substrate were extracted with dichloromethane, and measured by reverse phase HPLC as described before (12, 13b).

human CYP27B1 = human CYP27B1 (Homo sapiens, UniProt O15528); test: Metabolism by CYP27B1 in phospholipid vesicles; type: in vitro ADME; settings: up to 10 min
human CYP27B1, sequence (O15528 whole entry): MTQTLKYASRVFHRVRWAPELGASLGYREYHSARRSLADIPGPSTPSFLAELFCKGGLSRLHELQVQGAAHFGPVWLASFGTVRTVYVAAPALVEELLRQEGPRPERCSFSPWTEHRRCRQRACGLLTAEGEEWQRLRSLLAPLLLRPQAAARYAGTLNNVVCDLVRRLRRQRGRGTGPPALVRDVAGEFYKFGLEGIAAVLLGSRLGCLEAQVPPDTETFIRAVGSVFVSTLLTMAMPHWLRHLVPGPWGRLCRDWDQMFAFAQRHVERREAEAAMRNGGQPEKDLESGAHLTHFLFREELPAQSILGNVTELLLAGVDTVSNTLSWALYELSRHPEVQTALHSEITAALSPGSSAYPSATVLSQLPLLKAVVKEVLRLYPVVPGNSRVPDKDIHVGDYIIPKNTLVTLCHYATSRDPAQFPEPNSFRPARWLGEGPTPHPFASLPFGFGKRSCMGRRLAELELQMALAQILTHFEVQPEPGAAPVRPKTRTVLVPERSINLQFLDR
Method: as §1, §2

[1] = test system: SKMEL-188 human melanoma cells; test: MTT cell viability, SKMEL-188; type: cell-based; settings: SKMEL-188, 48 hrs, dose dependent
Method: MTT test were performed. Briefly, the cells were seeded in 96-well plate. Following 24, 48, 72 or 96 h incubation, MTT (5 mg/mL in PBS, Promega, Madison, Wis.) was added and the plates were incubated at 37° C. in 5% CO2 for 4 h. Subsequently, medium was discarded, acid isopropanol was added, plates were incubated for 30 min with continuous shaking and absorbance was measured at 570 nm with a plate reader (BIO-RAD Laboratories, Hercules, Calif.).

[2] = test system: K562 human chronic myeloid leukemia cells; test: Viable cell count, K562 cells; type: cell-based; settings: 10^-7 M, 7 days
Method: (§3) K562 human chronic myeloid leukemia (erythroleukemia) and MEL mouse erytholeukemia cells were cultured in RPMI 1640 containing 10% FBS and treated with the drugs at concentrations 0.1 μM. A 0.1% ethanol (EtOH) or 2% DMSO were used as negative or positive control, respectively to estimate the vehicle effect and the ability of the cells to differentiate. Media were exchanged every 72 h and drugs added every day. Growth of cultures was estimated by counting number of viable cells (trypan blue negative cells) as described previously.

[3] = test system: mouse erytholeukemia cells (Mel); test: Viable cell count, MEL cells; type: cell-based; settings: 10^-7 M, 7 days
Method: as §3

[4] = test system: HL-60 human promyelocytic leukemia cells; test: Monocytic differentiation (NBT), HL-60; type: cell-based; settings: HL-60, 0.1 μM
Method: (§4) HL-60 human promyelocytic and U937 promonocytic leukemia cells were treated with the drugs at 0.1 μM or vehicle (negative control or 12-O-tetradecanoylphorbol-13-acetate (TPA) (positive control). Media were changed every 72 h and test substances added fresh every day. Differentiation toward monocytes-like morphology and NBT-reduction has been assessed after 5 and 7 days. Cells (2×106) were washed with PBS four times and resuspended in 200 μL of NBT solution (4 mg/mL) in water. After the addition of 200 ul of TPA solution (2 ug/ml) in PBS cells were incubated at 37° C. for 60 min in 24-well plates. Cell differentiation was assessed by intracellular blue formazan deposits. The NBT positive and negative cells were scored under light microscopy examination (40×) with a minimum of 200 cells scored.
(§5) For spectrophotometric analysis the cells were washed twice with buffer containing cold bovine serum albumin solution (17 mg/mL BSA, 137 mmol/L, NaCl, 5 mmol/L, KCl, 0.8 mmol/L, MgSO4, […], HEPES, pH7.4) to remove unreacted NBT, and the insoluble formazan deposits in the resulting pellet were solubilized in 1 mL of a mixture containing 90% DMSO, 0.1% SDS and 0.01 mmol/L NaOH by vigorous vortexing. The samples were centrifuged 5 min at 1500 g to remove the cellular debris, and then the absorbance of supernatants was measured at 715 nm. Data are expressed as change in A715/106 cells.

HaCaT keratinocytes = test: [3H]-thymidine DNA synthesis in HaCaT keratinocytes; type: cell-based, human; settings: HaCaT, 24 hrs, dose dependent
Method: HaCaT keratinocytes were plated in 96-well plates at the density of 10,000 cells/well in DMEM (Cellgro, Herndon Va.) containing 5% charcoal treated fetal bovine serum (Hyclone, Logan, Utah), 1% antibiotic solution (PSA, Sigma, St. Louis, […].). Next day, media were changed and vehicle (ethanol) or secosteroids added. Cells were incubated with compounds for 48 hours. [^3H]-thymidine (Amersham Biosciences, Picataway, N.Y.) was added to the final concentration of 1 μCi/mL medium for last 12 hours of incubation. Media were then discarded, cells detached with trypsin and harvested on a glass fiber filter (Packard, Meriden, Calif.). Radioactivity was measured with a beta counter (Direct Beta-Counter Matrix 9600; Packard).
To measure DNA synthesis, keratinocytes, melanoma or prostate cancer cells were plated in 96-well plates. After overnight incubation tested compounds were added to the medium to achieve final concentrations 10^−7-10^−10 [M]. 100 μl of medium per well containing vitamin D3 compound was added to the cells. After 36 hours of incubation [3H]-thymidine (specific activity 88.0 Ci/mmol; Amersham Biosciences, Picataway, N.Y., USA) was added at 1 μCi/mL medium. After 12 hours, media were discarded, cells detached with trypsin and harvested on a glass fiber filter (Packard, Meriden, Calif., USA). 3H-radioactivity was measured with a beta counter (Direct Beta-Counter Matrix 9600; Packard).
HaCaT keratinocytes were plated out in 24-well plates, 50,000 cells/well. […] After 4 h media were discarded, cells washed with cold phosphate-buffered saline and incubated in 10% trichloroacetic acid for 30 min. Cells were washed again with phosphate-buffered saline, 100 μl 1.0 M NaOH was added to each well and plates incubated for 30 min at 30° C. The supernatant was collected and the ^3H-radioactivity measured by scintillation counting using a Direct Beta-Counter Matrix 9600 (Packard). The [^3H]-thymidine incorporation into DNA was measured separately for each well and the results entered into the calculation as the mean of 6 wells for each condition in a series of six experiments (n=36). Data were analyzed with GraphPad Prizm Version 4.0 (GraphPad Software Inc., San Diego, Calif., USA) using t tests. Differences were considered significant when p<0.05.

[5] = test system: U937 promonocytic leukemia cells; test: Monocytic differentiation (NBT), U937; type: cell-based, human; settings: U937, 0.1 μM
Method: as §4, §5

[6] = test system: AbC1 hamster melanoma cells; test: Soft agar colony formation, AbC1 melanoma; type: cell-based; settings: AbC1, 3 weeks
Method: Growth and survival of prostate cancer cells (PC3) and melanoma cells SKMEL 188 and AbC1 was determined by following their ability to form colonies in soft agar. Cells growing in monolayer culture were trypsinized and resuspended (1,000 cells/well) in 0.25 ml medium containing 0.4% agarose and 5% charcoal stripped serum (HyClone).
Cell suspensions were added to 0.8% agar layer in 24 well plates. Compounds were added from ethanol stocks (100 μM) to final concentrations of 0.1 nM or 10 nM, in 100 μL media. Each condition was tested in quadruplicate. An ethanol solvent control (amount of ethanol equivalent to test) as well as a media-only control was included in the assay. […] […] Colonies were then counted under the microscope and number of units was calculated as number of colonies formed divided by the number of cells seeded×100.

[7] = test system: K562 human chronic myeloid leukemia cells; test: Erythroid differentiation of K562 cells; type: cell-based; settings: 10^-7 M, 7 days
Method: as §3
To estimate erythroid differentiation (production of hemoglobin), first the number of benzidine positive cells was evaluated after 2 and 7 days in culture. Cells were centrifuged and washed four times with PBS and resuspended in 1 mL of fresh PBS. For hemoglobin determination, a benzidine staining solution was freshly prepared by mixing one part of 30% hydrogen peroxide, one part of base stock solution of 3% benzidine in 90% acetic acid, and 5 parts of water. The solution was diluted 1:10 with the cell suspension and aliquoted in 4 wells in 24-well plate (250 μl each). After 10 min of incubation at RT benzidine-positive cells were counted under the microscope with a minimum of 200 cells scored.
Second, to define spectrophotometrically relative content of hemoglobin, equal number of cells (7×106) were washed with cold PBS and lysed for 20 min in 100 μL of lysis buffer (0.2% Triton X-100 in […] potassium phosphate buffer, pH 7.8). The lysates were centrifuged for 15 min at 1500 r.p.m. and 100 μL of the supernatant was incubated with 2 mL of benzidine solution (5 mg/mL in glacial acetic acid) and 2 ml 30% H2O2 for 10 min increases in comparison with the level of hemoglobin in mock-induced K562 or MEL cells.

Col1A1 mRNA = test: Real time RT PCR Col1A1 mRNA, TGF-b1 stimulated skin fibroblasts; type: cell-based; settings: human skin fibroblasts
Method: (§6) Additional studies using human skin fibroblasts were performed employing a type I collagen specific ELISA Chondrex, and real time RT PCR to quantitate type I collagen protein and Col1A1 mRNA expression in culture of human fibroblast stimulated by TGF-b1 in the presence and absence of 17,20S(OH)2pD3 and/or 20(OH)D3. These studies confirmed that Type I collagen protein production that was induced by TGF-b1 and that Col1A1 mRNA that was induced by TGF-b1 were suppressed by these analogues (FIGS. 44A-44B).

[8] = test system: anti-CD3 stimulated DBA/1 Lac J spleen cells; test: Cytokine/chemokine production by anti-CD3 stimulated spleen cells (Luminex); type: cell-based, mouse; settings: spleen cells + anti-CD3 (4 μg/ml) + analogue 10^−7 M, 5 days, supernatant, one mouse
Method: Vitamin D analogues were solubilzed in absolute alcohol (EtOH) and added at 1:100 dilution to cultures of spleen cells from normal DBA/1 Lac J mice (Table 13). […] Therefore, changes are not due to decreased cell viability.
Spleen cells from three normal 8 wk old female DBA/1 Lac J mice were cultured in 96 well tissue culture plates in quadruplicate at 2×10^6 cells/ml in RPMI 1640 medium containing 9% FCS with and without anti-CD3 (4 μg/ml) and with anti-CD3+10^−7M natural vitamin D analogues for 5 days after which time supernatants were harvested and subjected to cytokine multiplex on a Luminex instrument using Milliplex Mouse Kit (values are pg/ml). The general trend in changes in cytokine levels were similar for each of the mice but some produced different levels of each cytokine for each culture additions. Data from one mouse are given and bold numbers indicate those that changed from anti-CD3 stimulated culture with vitamin D analogues added. There was no significant stimulation of IL-1 g, IL-2, IL-4, IL-5, IL-7, IL-9, IL-12 p70, IL-13, IL-15, MIP-2, RANTES or TNFα with the anti-CD3 MOAB.

type I collagen = test: Type I collagen ELISA, TGF-b1 stimulated skin fibroblasts; type: cell-based; settings: human skin fibroblasts
Method: as §6

Human dermal fibroblasts = test: TGF-b1 induced collagen protein production by dermal fibroblasts; type: cell-based; settings: collagenase sensitive protein, [3H]-proline
Method: Human dermal fibroblasts grown from explant skin cultures at less than 10 subpassages were plated at 5×10^4 cells per well in 24 well Costar tissue culture plates and were grown to confluency. Complete MEM was then changed to serum free Complete MEM without non-essential amino acids. After 24 hours, culture medium was changed (450 μl/well) to the same and secosteroids listed in Table 14 were added in 10 μl absolute alcohol (ETOH) to a final concentration of 10^−9 and M, 3 replicate wells each. Vehicle control wells (n=6) contained 10 μl (ETOH). After 2 hour pre-incubation, hr TGF-b1 (R and D systems) was added to each well except ETOH wells at a final concentration of 5 ng/ml. After 48 hours of culture, plate wells were paused with 1μ Cl ^3[H]-proline. After 24 hours, culture supernatants were harvested and collagenase sensitive protein was determined as previously described (44).

bovine CYP11A1, sequence (P00189 40-520): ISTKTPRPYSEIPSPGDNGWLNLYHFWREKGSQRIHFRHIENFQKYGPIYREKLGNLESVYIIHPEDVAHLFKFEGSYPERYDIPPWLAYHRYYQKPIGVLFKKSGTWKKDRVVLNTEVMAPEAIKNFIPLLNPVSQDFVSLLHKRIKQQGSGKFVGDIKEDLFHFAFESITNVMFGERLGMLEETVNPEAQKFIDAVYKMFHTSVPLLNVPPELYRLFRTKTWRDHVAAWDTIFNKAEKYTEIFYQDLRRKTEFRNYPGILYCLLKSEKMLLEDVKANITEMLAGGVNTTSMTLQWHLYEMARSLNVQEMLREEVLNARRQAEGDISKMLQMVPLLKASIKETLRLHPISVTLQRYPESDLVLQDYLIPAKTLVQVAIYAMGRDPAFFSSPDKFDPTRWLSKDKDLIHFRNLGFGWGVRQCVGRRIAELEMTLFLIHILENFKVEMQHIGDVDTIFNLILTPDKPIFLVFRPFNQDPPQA

`C=C1CC[C@H](O)C/C1=C/C=C1\CCC[C@@]2(C)[C@H]1CC[C@@H]2[C@@](C)(O)CCCC(C)C` [20S(OH)D3, (5Z,7E)-9,10-secocholesta-5,7,10(19)-triene-3β,20S-diol] was tested. Which substrate consumed (bovine CYP11A1) did it give?
Its substrate consumed is 13%.

And the “metabolism by CYP27B1” value (human CYP27B1)?
Its value is “metabolized to a single product at comparable initial rates”.

How did the “proliferation (MTT test)” value [1] turn out when `CC(O)[C@H]1CC[C@H]2C3=CC=C4C[C@@H](O)CC[C@@]4(C)[C@@H]3CC[C@]12C` (stereo partly drawn) [20OH pL3, 3β,20-dihydroxy-9β,10α-pregna-5,7-diene] was run?
Its value is “inhibit proliferation”.

What about the “proliferation of K562 cells” value [2] of the same compound?
The value was “inhibit proliferation”.

And the “proliferation of mouse erytholeukemia cells (Mel)” value [3]?
Its value is “inhibit proliferation”.

And the “monocytic differentiation (NBT staining)” value [4]?
The value was “induce monocytic differention”.

What about the “proliferation (DNA synthesis)” value (HaCaT keratinocytes) of the same compound?
The value was “inhibit proliferation”.

And the “monocytic differentiation (NBT staining)” value [5]?
The value was “induce monocytic differention”.

And the “growth on soft agar (colonies greater than 0.2 and 0.5 mm)” value [6]?
Its value is “inhibit the growth on soft agar”.

And the “differentiation of K562 cells” value [7]?
Its value is “induce differentiation”.

How did the “TGF-b1 induced Col1A1 mRNA” value (Col1A1 mRNA) turn out when `C=C1CC[C@H](O)C/C1=C/C=C1\CCC[C@@]2(C)[C@H]1CC[C@]2(O)[C@H](C)O` [17,20S(OH)2pD3, (5Z,7E)-(20S)-9,10-secopregna-5,7,10(19)-triene-3β,17α,20-triol] was run?
Its value is “suppressed”.

And the G-CSF [8]?
The G-CSF was 12 pg/mL.

And the GM-CSF [8]?
The GM-CSF was 41 pg/mL.

And the IFNγ [8]?
Its IFNγ is 0 pg/mL.

And the IL-1α [8]?
Its IL-1α is 4 pg/mL.

What about the IL-6 [8] of the same compound?
Its IL-6 is 13 pg/mL.

And the IL-10 [8]?
Its IL-10 is 16 pg/mL.

And the IL-17 [8]?
Its IL-17 is 111 pg/mL.

And the IP-10 [8]?
Its IP-10 is 6 pg/mL.

And the KC [8]?
Its KC is 5 pg/mL.

What about the MCP-1 [8] of the same compound?
Its MCP-1 is 102 pg/mL.

And the “TGF-b1 induced Type I collagen protein production (ELISA)” value (type I collagen)?
The value was “suppressed”.

What about the “TGF-b1 induced collagen protein production” value (Human dermal fibroblasts) of the same compound?
The value was “inhibited TGF-b1 induced collagen protein production”.

Which results are given for `C=C1CC[C@H](O)C/C1=C/C=C1\CCC[C@]2(C)[C@@H](C(C)O)CC[C@@H]12` (stereo partly drawn) [20OH pD3, (5Z,7E)-9,10-secopregna-5,7,10(19)-triene-3β,20-diol]?
proliferation (MTT test) [1]: inhibit proliferation; proliferation of K562 cells [2]: inhibit proliferation; proliferation of mouse erytholeukemia cells (Mel) [3]: inhibit proliferation; proliferation (DNA synthesis) (HaCaT keratinocytes): inhibit proliferation; growth on soft agar (colonies greater than 0.2 and 0.5 mm) [6]: inhibit the growth on soft agar; differentiation of K562 cells [7]: induce differentiation
